Assay results as given in patent US20260002931A1, “CULTURED CELL SHEET AND METHOD FOR PRODUCING SAME; METHOD FOR EVALUATING COMPOUND OR DRUG; AND METHOD FOR EVALUATING QUALITY OF CULTURED CELL SHEET” (OJI HOLDINGS CORPORATION, priority 2022, published 2026).

Key:
[1] = tested on: iCell cardiomyocyte CM2 (human iPS cell-derived cardiomyocytes); assay: Drug safety test-1: arrhythmia measurement by Ca-imaging (CQ1); assay type: cell-based; conditions: for duration (20% waveform width of Ca transient) / interval between peaks of Ca transient: cumulative dose1-dose3 of Table 2
Experimental: (§1) The drug was dissolved in DMSO and cumulatively administered. First, the measurement as dose0 was performed without adding drugs. […] Subsequently, immediately after the measurement, the drug was added to the same well, respectively so that the concentration was dose2, and the measurement was performed after 15 minutes. The same was done for dose3.
(§2) For the cell responsiveness after the drug administration, an arrhythmia measurement method by Ca-imaging using a confocal imaging device (CQ1, manufactured by Yokogawa Electric Corporation) and a motion test method using a live cell imaging device (SI8000, manufactured by Sony Corporation) were performed to investigate the effect on the beating rate and the line width of the beating peak.
To CM2 on day 6 of maintenance culture, a fluorescent Ca indicator (EarlyTox carditotoxicity kit, manufactured by Molecular Devices, LLC.) was added, and living cells were stained. First, the change in Ca fluorescence intensity associated with the contraction of cardiomyocytes was measured as Dose0 in CQ1 without adding drugs. Immediately after the measurement, each drug at the concentration of Dose1 was added to the same well plate, and the change in Ca fluorescence intensity was measured after 15 minutes. For Dose2 and Dose3, the drug was cumulatively administered in the same manner, and the change in Ca fluorescence intensity was measured. The addition test of each drug was performed at n=6.
The significant difference test was performed between the subject group in which DMSO was added and the drug addition group in CM2 cultured in the planar plate and CM2 cultured the aligned plate.
For the side effects seen from the waveform changes of Ca transient, early after depolarization (EAD) and delayed after depolarization (DAD), small regular waveforms (VT-like), and reaction (waveform) disappearance were recorded. The“−” in the table indicates the state in which no arrhythmia or the like has occurred. The degree of arrhythmia is mild for EAD, moderate for DAD, and severe for vt-like.

[2] = tested on: iCell cardiomyocyte CM2 (human iPS cell-derived cardiomyocytes); assay: Drug safety test-3 (anti-cancer drug): motion test method using live cell imaging device, CM2 cultured for 15 days; conditions: 3 μM; for beating rate (BR), change rate vs pre-measurement: day 15, after 24 and 48 hours
Experimental: iCell cardiomyocytes (iCell Cardiomyocyte v2.0, manufactured by FUJIFILM Cellular Dynamics, Inc.) were used as human iPS cell-derived cardiomyocytes (hereinafter referred to as CM2). The culture was performed by the following procedure.
In the same procedure as in the above (10), CM2 was seeded at a concentration of 6×10^4 cells/well in the aligned plate (96 well plate, ND Cell Aligner) and the planar plate (96 well plate). A maintenance culture was performed in a 37° C. CO2 incubator, and the drug was administered on day 15 with setting the day of seeding as day 0.
The drug was dissolved in DMSO and administered. First, as a pre-measurement, a measurement was performed without adding the drug. Immediately after the measurement, the drug dissolved in DMSO was added to each well so that the concentration was 3 PM, and the measurement was performed after 24 hours and 48 hours. The measurement was performed in the same manner as the (10-1) measurement by motion test method using live cell imaging device described above.
For the measurement data, the measurement value at the concentration of 3 μM was corrected with the average value of the pre-measurement without adding the drug (measurement value at 3 μM/measurement value of pre-measurement), and the change rate with setting the measurement value of the pre-measurement as 1 was determined.
In addition, a T test was performed between the planar plate and the aligned plate in the drug addition group. For the comparison group with a P value of 0.01 or less, the graph was marked.
DMSO used as the solvent was added so that the final concentration was 0.01%. The effect of DMSO was confirmed by measuring 0.01% DMSO addition group after 24 hours and 48 hours. The measurement data were processed in the same manner as the drug addition group.

[3] = tested on: iCell cardiomyocyte CM2 (human iPS cell-derived cardiomyocytes); assay: Drug safety test-1: motion test method using live cell imaging device (SI8000); assay type: cell-based; conditions: for CRD (corrected with the beating rate): Dose2 0.3 μM and Dose3 1 μM, vs DMSO group; for beating rate (BR) / relaxation velocity (RV): day 5, cumulative dose1-dose3 of Table 2; for CRD (corrected with beating rate): Dose1 1 μM, Dose2 3 μM, Dose3 10 μM
Experimental: as §1, §2
CM2 on day 5 of maintenance culture was used, and video data was first obtained as Dose0 using SI8000 (manufactured by Sony Corporation) without adding drugs. Immediately after the measurement, each drug at the concentration of dose1 was added to the same well plate, and video data was obtained after 15 minutes. For Dose2 and Dose3, the drug was cumulatively administered in the same manner, and video data was obtained. The addition test of each drug was performed at n=6.
The beating rate (BR), the contractile velocity (CV), the relaxation velocity (RV), and the contraction-relaxation duration (CRD) were analyzed from the video data of S18000, and the effects of the drugs on the motion of the cells were compared. The contraction-relaxation duration (CRD) was corrected by the following equation with reference to the equation of Frederica to correct variation due to the beating rate (BR).
For the side effects seen from the change in the parameters of SI8000, early after depolarization (EAD) and delayed after depolarization (DAD), small regular waveforms (VT-like), and reaction (waveform) disappearance were recorded. Changes in waveforms not classified into EAD or DAD were described as arrhythmia. The “-” in the table indicates the state in which no arrhythmia or the like has occurred.
The degree of arrhythmia is mild for EAD, moderate for DAD, and severe for vt-like.

[4] = tested on: CM2 (human iPS cell-derived cardiomyocytes); assay: Measurement of oxygen consumption rate with β-oxidation inhibitor; assay type: cell-based; conditions: day 27, 50 μM; for OCR with addition of Etomoxir: 10 to 70 minutes
Experimental: The measurement was performed using an oxygen consumption rate plate assay kit (manufactured by DOJINDO LABORATORIES, E297).
To the well plate in which CM2 was cultured, an oxygen probe diluted with medium was added and allowed to stand for 30 minutes in a plate reader incubated at 37° C. in advance. Next, a sample solution containing a β-oxidation inhibitor Etomoxir that inhibits a fatty acid metabolism enzyme at the final concentration 50 μM was added, and mineral oil was immediately added dropwise to block the supply of oxygen.
After allowing the well plate to stand for 5 minutes in a plate reader incubated at 37° C., the fluorescence intensity was measured over time. The fluorescent plate reader was measured under conditions of an excitation wavelength of 495 nm/fluorescence wavelength of 650 nm, and the data acquisition was performed for at least 168 minutes every 10 minutes.
The measurement was performed with 6 wells without addition of Etomoxir as control and 3 wells with addition of 50 μM Etomoxir.
The oxygen concentration (pmol) was calculated with the calculation sheet attached to the oxygen consumption rate plate assay kit, and the oxygen consumption rate (pmol/min) was calculated from the oxygen concentration reduction amount for 60 minutes of 10 to 70 minutes after the start of the measurement.

[5] = tested on: iCell cardiomyocytes CM2 (human iPS cell-derived cardiomyocytes); assay: Drug safety test-2: motion test method using live cell imaging device, CM2 cultured for 15 days; assay type: cell-based; conditions: for beating rate (BR), relative to dose0 / contractile velocity (CV), relative to dose0 / relaxation velocity (RV), relative to dose0: day 15, doses of Table 7, 120 min isoproterenol, 15 min milrinone
Experimental: The drug used was isoproterenol and milrinone. […] First, the measurement as dose0 was performed without adding drugs.
For the cell responsiveness after drug administration, a motion test method using a live cell imaging device (SI8000, manufactured by Sony Corporation) was performed to investigate the effect on the beating rate, the contractile velocity, and the relaxation velocity.
CM2 on day 15 of maintenance culture was used, and video data was first obtained as dose0 using SI8000 (manufactured by Sony Corporation) without adding drugs. Immediately after the measurement, each drug at the concentration of each dose was added to the same well plate, and video data was obtained after 120 minutes for isoproterenol and after 15 minutes for milrinone. The addition test of each drug was performed at n=5.
The beating rate (BR), the contractile velocity (CV), and the relaxation velocity (RV) were analyzed from the video data of SI8000, and the effects of the drugs on the motion of the cells were compared.
The measurement data was corrected with the average value of dose0 of no adding drugs (each measurement value/measurement value of dose0), and the relative value with setting the measurement value of dose0 as 1 was determined.

[6] = aligned and planar plates, day 6

COc1cc(N)c(Cl)cc1C(=O)NC1CCN(CCCOc2ccc(F)cc2)CC1OC (stereo not drawn) [Cisapride]
duration (20% waveform width of Ca transient) [1, 6]: extended in a dose-dependent manner
interval between peaks of Ca transient [1, 6]: extended in a dose-dependent manner
incidence of arrhythmia ([1]; aligned plate, cisapride Dose1 0.01 μM to Dose3 0.1 μM, wells of 6): 1/6
difference between the value at Dose0 and at Dose3 (duration, interval), aligned plate versus planar plate ([1]; cisapride, Dose3 0.1 μM): smaller
incidence of arrhythmia ([1]; planar plate, cisapride 0.01-0.1 μM): No arrhythmia occurred

COc1cccc2c1C(=O)c1c(O)c3c(c(O)c1C2=O)C[C@@](O)(C(=O)CO)C[C@@H]3O[C@H]1C[C@H](N)[C@H](O)[C@H](C)O1 [Doxorubicin, doxorubicin]
beating rate, aligned plate compared to planar plate [2]: significantly increased
beating rate, result after 48 hours compared with after 24 hours [2]: more increased
RV, aligned plate compared to planar plate ([2]; after 48 hours): significantly increased
relaxation velocity (RV), change rate vs pre-measurement ([2]; aligned plate): increased
beating rate (BR), change rate vs pre-measurement ([2]; aligned plate): increased
relaxation velocity (RV), change rate vs pre-measurement ([2]; planar plate): increased
beating rate (BR), change rate vs pre-measurement ([2]; planar plate): increased

Cc1cccc(CCN2CCC(C(=O)c3ccc(NS(C)(=O)=O)cc3)CC2)n1 [E-4031]
CRD (corrected with the beating rate) ([3]; aligned plate): significantly reduced
beating rate (BR) ([3]; aligned plate): reduced
relaxation velocity (RV) ([3]; aligned plate): reduced
CRD (corrected with the beating rate) ([3]; planar plate): significantly reduced
CRD (corrected with the beating rate), planar plate compared with aligned plate ([3]; planar plate, E-4031): reduced more remarkably
beating rate (BR) ([3]; planar plate): reduced
relaxation velocity (RV) ([3]; planar plate): reduced
Duration of Ca transient, planar plate compared with aligned plate ([1]; E-4031 0.1 μM, day 6): slightly longer
Duration of Ca transient, planar plate compared with aligned plate ([1]; E-4031 0.3 μM, day 6): significantly longer
Duration of Ca transient, planar plate ([1]; E-4031 1 μM, day 6): not significantly but remarkably extended

CCOC(=O)[C@@]1(CCCCCCOc2ccc(Cl)cc2)CO1 [Etomoxir]
OCR compared to OCR before addition ([4]; aligned plate): 11.0%
OCR with addition of Etomoxir ([4]; aligned plate): 7.0 pmol/min
OCR compared to OCR before addition ([4]; planar plate): 98.3%
OCR with addition of Etomoxir ([4]; planar plate): 77.8 pmol/min

CC(C)NCC(O)c1ccc(O)c(O)c1 (stereo not drawn) [Isoproterenol]
arrhythmia or the like ([3]; aligned and planar plate, any concentration (1, 3, 10 μM)): No arrhythmia or the like was observed
CRD (corrected with beating rate) ([3]; aligned plate): extended
beating rate (BR) ([3]; aligned plate): tended to increase
relaxation velocity (RV) ([3]; aligned plate): tended to increase
change of CRD compared with the solvent (DMSO) ([3]; planar plate, 1, 3, 10 μM): largely different from that of the solvent (DMSO)
CRD (corrected with beating rate) ([3]; planar plate): extended
beating rate (BR) ([3]; planar plate): tended to increase
relaxation velocity (RV) ([3]; planar plate): tended to increase
duration (20% waveform width of Ca transient) [1, 6]: Reduction was observed
interval between peaks of Ca transient [1, 6]: Reduction was observed
arrhythmia ([1]; aligned and planar plates, up to high concentration (Dose3, 10 μM)): arrhythmia did not occur
reduction in duration ([1]; planar plate, isoproterenol 1, 3, 10 μM): small
beating rate (BR), relative to dose0 ([5]; aligned plate): increased
contractile velocity (CV), relative to dose0 ([5]; aligned plate): increased
relaxation velocity (RV), relative to dose0 ([5]; aligned plate): increased
relaxation velocity, aligned plate compared to planar plate ([5]; isoproterenol dose2 (0.3 μM) and dose3 (3 μM)): increased
beating rate (BR), relative to dose0 ([5]; planar plate): increased
contractile velocity (CV), relative to dose0 ([5]; planar plate): tended to reduce
relaxation velocity (RV), relative to dose0 ([5]; planar plate): increased

Cc1[nH]c(=O)c(C#N)cc1-c1ccncc1 [Milrinone]
beating rate (BR), relative to dose0 ([5]; aligned plate): increased
contractile velocity (CV), relative to dose0 ([5]; aligned plate): increased
relaxation velocity (RV), relative to dose0 ([5]; aligned plate): increased
RV, aligned plate compared to planar plate ([5]; milrinone): significantly increased
contractile velocity (CV), aligned plate compared to planar plate ([5]; milrinone dose3 (300 μM)): significantly increased
relaxation velocity (RV), aligned plate compared to before the drug addition ([5]; milrinone dose3 (300 μM)): predominantly increased
beating rate (BR), aligned plate compared to before the drug addition ([5]; milrinone, all doses (30, 100, 300 μM)): predominantly increased
beating rate (BR), relative to dose0 ([5]; planar plate): did not change
contractile velocity (CV), relative to dose0 ([5]; planar plate): tended to reduce
relaxation velocity (RV), relative to dose0 ([5]; planar plate): tended to reduce

C=C[C@H]1C[N@@]2CC[C@H]1C[C@@H]2[C@@H](O)c1ccnc2ccc(OC)cc12 [Quinidine]
incidence of moderate to severe arrhythmia (DAD, VT-like) ([1]; aligned plate, quinidine Dose1, 3 μM, wells of 6): 0/6
incidence of moderate to severe arrhythmia (DAD, VT-like) ([1]; aligned plate, quinidine Dose2, 10 μM, wells of 6): 0/6
incidence of moderate to severe arrhythmia (DAD, VT-like) ([1]; aligned plate, quinidine Dose3, 30 μM, wells of 6): 6/6
incidence of moderate to severe arrhythmia ([1]; planar plate, quinidine Dose1, 3 μM, wells of 6): 0/6
incidence of moderate to severe arrhythmia ([1]; planar plate, quinidine Dose2, 10 μM, wells of 6): 0/6
incidence of moderate to severe arrhythmia ([1]; planar plate, quinidine Dose3, 30 μM, wells of 6): 4/6
duration of Ca transient, planar plate compared to aligned plate ([1]; quinidine Dose2, 10 μM): longer extension
interval of Ca transient, planar plate compared to aligned plate ([1]; quinidine Dose2, 10 μM): longer extension
peak height of Ca transient, planar plate compared to aligned plate ([1]; quinidine Dose2, 10 μM): significantly weaker decrease
contraction force ([1]; quinidine Dose3, 30 μM): greatly reduced
waveform of Ca transient ([1]; quinidine Dose3, 30 μM): changed to a higher frequency waveform
